Test results published in ChEMBL document CHEMBL1201862, “PubChem BioAssay data set” (2004).
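1) Cells in 96-well plates. 2) Compound, 48 h, 5 concentrations. 3) Linear interpolation between surrounding doses. 4) Unreached endpoint = highest concentration. Here, GI50 denotes the concentration required for 50% inhibition of growth.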 Calls of active or inactive are those of the source. No stated cut-off is given here; in the data, active = GI50 up to about 1.1 µM and inactive = higher.

Experiments:
Assay in all cases: growth of human tumour cells (NCI), 48 h
SF-268 = tested on: SF-268
MOLT-4 = tested on: MOLT-4
SK-OV-3 = tested on: SK-OV-3
EKVX = tested on: EKVX
MDA-MB-231 = tested on: MDA-MB-231
M14 = tested on: M14
RXF 393 = tested on: RXF 393
PC-3 = tested on: PC-3
UACC-62 = tested on: UACC-62
RPMI-8226 = tested on: RPMI-8226
CAKI-1 = tested on: CAKI-1
HCT-116 = tested on: HCT-116
HCC 2998 = tested on: HCC 2998
SW-620 = tested on: SW-620
U-251 = tested on: U-251
NCI-H522 = tested on: NCI-H522
Hs-578T = tested on: Hs-578T
A498 = tested on: A498
SF-539 = tested on: SF-539

Measured: GI50

COc1ccc(CC[N+]2(C)COc3cc4oc(=O)cc(C)c4cc3C2)cc1OC (stereo unspecified)
inactive: SF-268 > 100 µM | MOLT-4 1.61 µM | SK-OV-3 > 100 µM | EKVX > 100 µM | MDA-MB-231 > 100 µM | M14 > 100 µM | RXF 393 > 100 µM | PC-3 > 100 µM | UACC-62 > 100 µM | RPMI-8226 > 100 µM | CAKI-1 > 100 µM | HCT-116 > 100 µM | HCC 2998 > 100 µM | SW-620 > 100 µM | U-251 > 100 µM | NCI-H522 > 100 µM | Hs-578T > 100 µM | A498 > 100 µM

CC(=O)c1ccc(Oc2c3ccccc3nc3ccccc23)cc1
inactive: SF-268 5.18 µM | SK-OV-3 15.7 µM | EKVX 17.5 µM | MDA-MB-231 11.6 µM | M14 4.35 µM | RXF 393 7.91 µM | PC-3 6.89 µM | UACC-62 6.41 µM | RPMI-8226 2.77 µM | CAKI-1 4.69 µM | SF-539 2.3 µM | HCT-116 2.7 µM | HCC 2998 9.48 µM | SW-620 4.33 µM | U-251 11.6 µM | NCI-H522 12.2 µM | Hs-578T 8.61 µM | A498 16.1 µM

CNNC1=NS(=O)(=O)c2cc(C)c(Cl)cc2S1
inactive: SF-268 > 10 µM | MOLT-4 > 10 µM | SK-OV-3 > 10 µM | EKVX > 10 µM | MDA-MB-231 > 10 µM | M14 > 10 µM | RXF 393 > 10 µM | PC-3 > 10 µM | UACC-62 > 10 µM | RPMI-8226 > 10 µM | CAKI-1 > 10 µM | SF-539 > 10 µM | HCT-116 > 10 µM | HCC 2998 > 10 µM | SW-620 > 10 µM | U-251 > 10 µM | NCI-H522 > 10 µM | Hs-578T > 10 µM | A498 > 10 µM

O=S(=O)(c1cc(Cl)ccc1Cl)N1CCN(c2cccc(Cl)c2)CC1
inactive: SF-268 > 100 µM | MOLT-4 > 100 µM | EKVX > 100 µM | MDA-MB-231 > 100 µM | M14 > 10 µM | RXF 393 > 100 µM | PC-3 > 100 µM | RPMI-8226 > 100 µM | CAKI-1 > 100 µM | SF-539 > 100 µM | HCT-116 > 100 µM | HCC 2998 > 100 µM | SW-620 > 100 µM | U-251 > 100 µM | NCI-H522 > 100 µM | Hs-578T > 100 µM | A498 > 100 µM

COc1ccc(OC)c2c1-c1nnnn1CCC2(C)C
inactive: SF-268 > 100 µM | MOLT-4 > 100 µM | SK-OV-3 > 100 µM | EKVX > 100 µM | MDA-MB-231 > 100 µM | M14 > 100 µM | RXF 393 > 100 µM | PC-3 > 100 µM | UACC-62 > 100 µM | RPMI-8226 > 100 µM | SF-539 > 100 µM | HCT-116 > 100 µM | HCC 2998 > 100 µM | SW-620 > 100 µM | U-251 > 100 µM | NCI-H522 > 100 µM | Hs-578T > 100 µM | A498 > 100 µM

Cc1ccc(OCCn2cc(Nc3ccccc3)c(=O)[nH]c2=O)cc1
inactive: SF-268 > 100 µM | MOLT-4 > 100 µM | EKVX > 100 µM | MDA-MB-231 > 100 µM | M14 > 100 µM | RXF 393 > 100 µM | PC-3 > 100 µM | UACC-62 > 100 µM | RPMI-8226 > 100 µM | CAKI-1 > 100 µM | SF-539 > 100 µM | HCT-116 > 100 µM | HCC 2998 > 100 µM | SW-620 > 100 µM | U-251 > 100 µM | NCI-H522 > 100 µM | Hs-578T 22.1 µM | A498 > 100 µM

CC(C)(CO)NC(=O)Nc1c(C(F)(F)F)cc(-c2ccccc2)[nH]c1=O
inactive: SF-268 > 100 µM | MOLT-4 > 100 µM | SK-OV-3 > 100 µM | EKVX > 100 µM | MDA-MB-231 > 100 µM | M14 > 100 µM | RXF 393 > 100 µM | PC-3 > 100 µM | UACC-62 > 100 µM | CAKI-1 > 100 µM | HCT-116 > 100 µM | HCC 2998 > 100 µM | SW-620 > 100 µM | U-251 > 100 µM | NCI-H522 > 100 µM | Hs-578T > 100 µM | A498 > 100 µM

O=C(N/N=C(COc1ccccc1)\N=C\c1ccncc1)c1ccncc1
inactive: SF-268 > 100 µM | MOLT-4 82 µM | SK-OV-3 > 100 µM | EKVX > 100 µM | MDA-MB-231 > 100 µM | M14 > 100 µM | RXF 393 > 100 µM | PC-3 > 100 µM | UACC-62 > 100 µM | RPMI-8226 97.5 µM | CAKI-1 > 100 µM | SF-539 > 100 µM | HCT-116 > 100 µM | HCC 2998 > 100 µM | SW-620 > 100 µM | U-251 > 100 µM | Hs-578T > 100 µM | A498 > 100 µM

c1ccc([B-]2(c3ccccc3)NCCCO2)cc1
inactive: SF-268 > 100 µM | MOLT-4 32.7 µM | SK-OV-3 85.7 µM | EKVX 97.5 µM | MDA-MB-231 42.5 µM | M14 31.3 µM | RXF 393 28.8 µM | PC-3 20.9 µM | UACC-62 45.4 µM | RPMI-8226 37.2 µM | CAKI-1 40.6 µM | SF-539 33.3 µM | HCT-116 35.8 µM | SW-620 49.5 µM | U-251 > 100 µM | NCI-H522 33.4 µM | Hs-578T 32.1 µM | A498 47.9 µM

CC(=O)Oc1c(-c2ccccc2)sc2ccccc12
inactive: SF-268 23 µM | MOLT-4 14.7 µM | EKVX 22.3 µM | MDA-MB-231 14 µM | M14 > 10 µM | RXF 393 13.6 µM | PC-3 25.5 µM | UACC-62 15.7 µM | RPMI-8226 1.61 µM | CAKI-1 1.33 µM | SF-539 20.6 µM | HCT-116 13.4 µM | HCC 2998 17.1 µM | SW-620 36.1 µM | U-251 18 µM | NCI-H522 19 µM | Hs-578T 19.6 µM | A498 17.8 µM

CCC1=NC(N/N=C/c2ccco2)=N/C1=C\c1ccccc1O
inactive: SF-268 21.8 µM | MOLT-4 25.2 µM | SK-OV-3 47 µM | EKVX 26.7 µM | MDA-MB-231 > 100 µM | M14 35.2 µM | RXF 393 82.4 µM | PC-3 31.2 µM | UACC-62 22.3 µM | RPMI-8226 31.9 µM | CAKI-1 > 100 µM | HCT-116 23.7 µM | HCC 2998 20.8 µM | SW-620 63.4 µM | U-251 56.4 µM | NCI-H522 21.8 µM | Hs-578T 30.6 µM | A498 68.9 µM

O=C(O)c1ccccc1-c1ccccc1C(=O)c1ccccc1
inactive: SF-268 > 100 µM | MOLT-4 > 100 µM | SK-OV-3 > 100 µM | EKVX > 100 µM | MDA-MB-231 > 100 µM | M14 > 100 µM | RXF 393 > 100 µM | PC-3 > 100 µM | UACC-62 > 100 µM | RPMI-8226 > 100 µM | CAKI-1 > 100 µM | SF-539 > 100 µM | HCT-116 > 100 µM | SW-620 > 100 µM | U-251 > 100 µM | NCI-H522 > 100 µM | Hs-578T > 100 µM | A498 > 100 µM

CC1(C)CC(=O)c2c([nH]c(=S)c(C#N)c2-c2ccc(Br)cc2)C1
inactive: SF-268 55.2 µM | SK-OV-3 > 100 µM | EKVX > 100 µM | MDA-MB-231 92.5 µM | M14 43 µM | RXF 393 33.7 µM | PC-3 30.4 µM | UACC-62 32.7 µM | CAKI-1 20 µM | SF-539 67.5 µM | HCT-116 58.2 µM | HCC 2998 35.8 µM | SW-620 46.9 µM | U-251 35.6 µM | NCI-H522 24.2 µM | Hs-578T 29 µM | A498 54 µM

O=C1C(Cl)=C(Cl)C(=O)C2=C1C1c3ccccc3C2c2ccccc21
inactive: SF-268 > 100 µM | MOLT-4 > 100 µM | SK-OV-3 94.4 µM | EKVX > 100 µM | MDA-MB-231 31.1 µM | M14 62.7 µM | RXF 393 30.8 µM | PC-3 > 100 µM | UACC-62 30.5 µM | RPMI-8226 25.6 µM | SF-539 31.3 µM | HCT-116 55.3 µM | HCC 2998 63.8 µM | SW-620 29.4 µM | U-251 20.9 µM | NCI-H522 18.7 µM | Hs-578T 39.4 µM | A498 > 100 µM

CCOC(=O)c1cn(CC)c2cc3c(cc2c1=O)CCS3(=O)=O
inactive: SF-268 > 100 µM | MOLT-4 > 100 µM | SK-OV-3 > 100 µM | EKVX > 100 µM | MDA-MB-231 > 100 µM | M14 > 100 µM | RXF 393 > 100 µM | PC-3 > 100 µM | UACC-62 > 100 µM | SF-539 > 100 µM | HCT-116 > 100 µM | HCC 2998 > 100 µM | SW-620 > 100 µM | U-251 > 100 µM | Hs-578T > 100 µM | A498 > 100 µM
